Assays:
Experiment in all cases: relative viability (nuclei count vs DMSO), 5 days (fraction); higher = more cells survive
Gemcitabine + Crizotinib = compound: Nc1ccn([C@@H]2O[C@H](CO)[C@@H](O)C2(F)F)c(=O)n1 [Gemcitabine] + C[C@@H](Oc1cc(-c2cnn(C3CCNCC3)c2)cnc1N)c1c(Cl)ccc(F)c1Cl [Crizotinib] (partner 1 µM)
Summary of the method: (§1)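 Relative viability was taken as the ratio of nuclei in treated wells to nuclei in vehicle wells. Lung cancer cell lines in 1536-well plates received compounds by pin tool one day after seeding, either one drug alone or a fixed anchor-drug dose plus five library-drug doses (not always all listed) in √10 steps. Nuclei were counted on 4× images after 5 days of treatment, and values are medians of duplicate plates.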

Gemcitabine + Linsitinib = compound: Nc1ccn([C@@H]2O[C@H](CO)[C@@H](O)C2(F)F)c(=O)n1 [Gemcitabine] + C[C@]1(O)C[C@@H](c2nc(-c3ccc4ccc(-c5ccccc5)nc4c3)c3c(N)nccn32)C1 [Linsitinib] (partner 1 µM)
Summary of the method: as §1

Gemcitabine + OSI-027 = compound: Nc1ccn([C@@H]2O[C@H](CO)[C@@H](O)C2(F)F)c(=O)n1 [Gemcitabine] + COc1cccc2cc(-c3nc([C@H]4CC[C@H](C(=O)O)CC4)n4ncnc(N)c34)[nH]c12 [OSI-027] (partner 0.5 µM)
Summary of the method: as §1

Gemcitabine + Tozasertib = compound: Nc1ccn([C@@H]2O[C@H](CO)[C@@H](O)C2(F)F)c(=O)n1 [Gemcitabine] + Cc1cc(Nc2cc(N3CCN(C)CC3)nc(Sc3ccc(NC(=O)C4CC4)cc3)n2)n[nH]1 [Tozasertib] (partner 0.1 µM)
Summary of the method: as §1

Cell Line	relative viability (Gemcitabine + Crizotinib; first compound 0.001 µM)	relative viability (Gemcitabine + Crizotinib; first compound 0.003162 µM)	relative viability (Gemcitabine + Crizotinib; first compound 0.01 µM)	relative viability (Gemcitabine + Crizotinib; first compound 0.03162 µM)	relative viability (Gemcitabine + Crizotinib; first compound 0.1 µM)	relative viability (Gemcitabine + Linsitinib; first compound 0.001 µM)	relative viability (Gemcitabine + Linsitinib; first compound 0.003162 µM)	relative viability (Gemcitabine + Linsitinib; first compound 0.01 µM)	relative viability (Gemcitabine + Linsitinib; first compound 0.03162 µM)	relative viability (Gemcitabine + Linsitinib; first compound 0.1 µM)	relative viability (Gemcitabine + OSI-027; first compound 0.001 µM)	relative viability (Gemcitabine + OSI-027; first compound 0.003162 µM)	relative viability (Gemcitabine + OSI-027; first compound 0.01 µM)	relative viability (Gemcitabine + OSI-027; first compound 0.03162 µM)	relative viability (Gemcitabine + OSI-027; first compound 0.1 µM)	relative viability (Gemcitabine + Tozasertib; first compound 0.001 µM)	relative viability (Gemcitabine + Tozasertib; first compound 0.003162 µM)	relative viability (Gemcitabine + Tozasertib; first compound 0.01 µM)	relative viability (Gemcitabine + Tozasertib; first compound 0.03162 µM)	relative viability (Gemcitabine + Tozasertib; first compound 0.1 µM)
NCI-H838	0.912	0.981	0.858	0.324	0.139	1.05	1.12	0.933	0.328	0.14	0.367	0.441	0.3	0.245	0.124	0.283	0.277	0.263	0.164	0.121
SW 1573	0.997	0.728	0.202	0.12	0.0565	0.904	0.726	0.148	0.127	0.0847	0.512	0.381	0.0711	0.0797	0.0431	0.189	0.165	0.0964	0.0589	0.0466
PC-14	0.903	0.569	0.308	0.0832	0.0612	0.936	0.6	0.366	0.147	0.0669	0.595	0.156	0.0375	0.0459	0.0298	0.579	0.275	0.078	0.0297	0.0356
LK-2	0.285		0.255	0.238	0.225	0.6	0.485	0.433	0.196	0.156	0.217	0.18	0.167	0.163	0.155	0.162	0.157	0.21	0.183	0.165
COR-L23	0.72	0.565	0.211	0.0732	0.0754	1.19	0.954	0.467	0.0831	0.0803	0.955	0.627	0.264	0.0984	0.101	0.223	0.19	0.111	0.0883	0.0724
NCI-H1944	1.28	1.02	0.953	0.304	0.141	1.24	1.15	1.17	0.509	0.259	0.453	0.437	0.385	0.188	0.149	0.253	0.266	0.251	0.188	0.105
HCC-78	0.271	0.26	0.167	0.146	0.15	0.532	0.347	0.199	0.189	0.154	0.325	0.312	0.263	0.211	0.229	0.448	0.37	0.147	0.198	0.164
NCI-H2405	0.846	0.775	0.564	0.245	0.22	0.965	0.651	0.393	0.237	0.182	0.641	0.314	0.32	0.211	0.196	0.812	0.709	0.495	0.221	0.216
SK-LU-1	1.02	0.364	0.258	0.208	0.252	1.11	0.51	0.245	0.211	0.219	0.352	0.208	0.146	0.165	0.143	0.303	0.207	0.131	0.145	0.14
EMC-BAC-2	0.778	0.768	0.594	0.14	0.149	0.797	0.822	0.751	0.191	0.154	0.422	0.423	0.212	0.214	0.223	0.269	0.32	0.26	0.176	0.155
NCI-H596	1.04	1.02	0.531	0.391	0.345	1.11	1.06	0.727	0.384	0.357	0.659	0.604	0.392	0.232	0.193	0.922	0.589	0.391	0.306	0.223
LCLC-97TM1	0.297	0.179	0.0935	0.0797	0.12	0.147	0.159	0.117	0.104	0.136	0.468	0.524	0.138	0.121	0.116	0.253	0.244	0.156	0.123	0.134
H3255	0.97	0.439	0.63	0.167	0.176	0.954	0.644	0.762	0.233	0.145	0.353	0.366	0.394	0.26	0.248	0.604	0.497	0.407	0.258	0.209
LXF-289	0.786	0.783	0.562	0.127	0.112	0.957	0.953	0.751	0.147	0.107	0.93	0.77	0.236	0.0894	0.105	0.254	0.199	0.111	0.0735	0.0697
UMC-11	0.746	0.574	0.598	0.549	0.233	0.993	1.03	0.963	0.956	0.382	0.474	0.474	0.478	0.352	0.197	0.197	0.162	0.221	0.211	0.215
LC-2-ad	0.471		0.427	0.162	0.109	0.895	0.852	0.553	0.143	0.132	0.817	0.578	0.279	0.195	0.188	0.497	0.407	0.379	0.191	0.2

Cell Line	relative viability (Gemcitabine + Crizotinib; first compound 0.001 µM)	relative viability (Gemcitabine + Crizotinib; first compound 0.003162 µM)	relative viability (Gemcitabine + Crizotinib; first compound 0.01 µM)	relative viability (Gemcitabine + Crizotinib; first compound 0.03162 µM)	relative viability (Gemcitabine + Crizotinib; first compound 0.1 µM)	relative viability (Gemcitabine + Linsitinib; first compound 0.001 µM)	relative viability (Gemcitabine + Linsitinib; first compound 0.003162 µM)	relative viability (Gemcitabine + Linsitinib; first compound 0.01 µM)	relative viability (Gemcitabine + Linsitinib; first compound 0.03162 µM)	relative viability (Gemcitabine + Linsitinib; first compound 0.1 µM)	relative viability (Gemcitabine + OSI-027; first compound 0.001 µM)	relative viability (Gemcitabine + OSI-027; first compound 0.003162 µM)	relative viability (Gemcitabine + OSI-027; first compound 0.01 µM)	relative viability (Gemcitabine + OSI-027; first compound 0.03162 µM)	relative viability (Gemcitabine + OSI-027; first compound 0.1 µM)	relative viability (Gemcitabine + Tozasertib; first compound 0.001 µM)	relative viability (Gemcitabine + Tozasertib; first compound 0.003162 µM)	relative viability (Gemcitabine + Tozasertib; first compound 0.01 µM)	relative viability (Gemcitabine + Tozasertib; first compound 0.03162 µM)	relative viability (Gemcitabine + Tozasertib; first compound 0.1 µM)
SK-MES-1	0.923	0.809	0.221	0.179	0.164	1.07	0.555	0.292	0.197	0.18	0.367	0.195	0.142	0.122	0.127	0.691	0.305	0.197	0.147	0.126
A-427	0.984	0.764	0.503	0.124	0.106	1.06	1.03	0.895	0.209	0.138	0.401	0.338	0.148	0.17	0.113	0.189	0.19	0.135	0.13	0.121
NCI-H322M	0.85	0.357	0.269	0.219	0.212	0.777	0.474	0.3	0.274	0.267	0.348	0.376	0.258	0.256	0.278	0.459	0.407	0.288	0.316	0.283
HCC-366	0.629	0.588	0.0778	0.0184	0.0078	0.722	0.477	0.138	0.0302	0.0117	0.899	1.23	0.478	0.0351	0.0249	0.14	0.105	0.0801	0.0228	0.0235
NCI-H1975	0.996	1.01	0.48	0.201	0.16	1.1	1.04	0.586	0.218	0.191	0.867	0.839	0.327	0.148	0.125	0.892	0.561	0.256	0.132	0.0954
NCI-H1437	1.07	0.863	0.617	0.162	0.121	1.05	0.875	0.406	0.213	0.105	0.822	0.734	0.452	0.297	0.181	0.447	0.418	0.347	0.297	0.156
NCI-H2009	1.18	0.841	0.227	0.102	0.0943	1.23	0.722	0.29	0.156	0.119	0.566	0.303	0.167	0.133	0.111	0.854	0.65	0.24	0.163	0.11
NCI-H1651	0.913	0.855	0.85	0.346	0.138	0.884	1.04	0.69	0.211	0.0842	0.607	0.75	0.557	0.248	0.117	0.621	0.683	0.693	0.177	0.0714
LCLC-103H	1.12	1.07	0.934	0.997	0.272	1.02	1.21	0.998	0.76	0.509	0.442	0.449	0.418	0.288	0.296	0.491	0.399	0.395	0.176	0.139
NCI-H1666	0.959	1.16	0.596	0.321	0.268	0.789	0.882	0.435	0.286	0.285	0.87	0.821	0.752	0.5	0.479	0.622	0.615	0.582	0.387	0.337
NCI-H1734	0.8	0.48	0.246	0.106	0.104	0.909	0.806	0.457	0.129	0.13	0.506	0.343	0.166	0.121	0.111	0.243	0.264	0.125	0.104	0.105
EPLC-272H	0.766	0.847	0.196	0.175	0.0681	1.21	1.18	0.883	0.673	0.0949	0.334	0.298	0.159	0.136	0.105	0.291	0.295	0.249	0.0772	0.0692
NCI-H2023	0.702	0.633	0.504	0.095	0.0687	0.8	0.631	0.478	0.0945	0.0741	0.417	0.342	0.128	0.0817	0.0589	0.409	0.385	0.233	0.101	0.0648
BEN	0.874	0.563	0.139	0.113	0.09	1.07	0.653	0.255	0.11	0.0904	0.299	0.274	0.174	0.167	0.167	0.56	0.559	0.419	0.24	0.175
COR-L 105	1.09	0.825	0.577	0.286	0.197	0.88	0.734	0.6	0.278	0.269	0.763	0.72	0.311	0.295	0.226	0.38	0.31	0.349	0.263	0.191
ABC-1	1.2	1.4	0.829	0.342	0.114	0.92	1.01	0.689	0.286	0.243	0.364		0.218	0.252	0.116	0.185		0.159	0.188	0.187
